From publication PMC7087588 (Monatshefte Fur Chemie, 2019)
“Also recorded” adds a separate entry of the source.

What was measured:
[1] = test system: variety of DNA and RNA viruses; assay type: cell-based
[2] = test system: Punta Toro virus, yellow fever virus or Sindbis virus; assay type: cell-based

Compound | antiviral activity (in words) [1] | antiviral activity (in words) [2]
O=C(NN1C(=O)CSC12CCCC2)c1[nH]c2ccc(Cl)cc2c1-c1ccccc1 [Compound 4a, 5-Chloro-N-(3-oxo-1-thia-4-azaspiro[4.4]nonan-4-yl)-3-phenyl-1H-indole-2-carboxamide] | no antiviral activity | –
O=C(NN1C(=O)CSC12CCCCC2)c1[nH]c2ccc(Cl)cc2c1-c1ccccc1 [Compound 4b, 5-Chloro-N-(3-oxo-1-thia-4-azaspiro[4.5]decan-4-yl)-3-phenyl-1H-indole-2-carboxamide] | – | moderately active; also recorded: inhibitory effect
CC1CCCC2(C1)SCC(=O)N2NC(=O)c1[nH]c2ccc(Cl)cc2c1-c1ccccc1 (stereo not drawn) [Compound 4c, 5-Chloro-N-(7-methyl-3-oxo-1-thia-4-azaspiro[4.5]decan-4-yl)-3-phenyl-1H-indole-2-carboxamide] | – | moderately active; also recorded: inhibitory effect
CC1SC2(CCCC2)N(NC(=O)c2[nH]c3ccc(Cl)cc3c2-c2ccccc2)C1=O (stereo not drawn) [Compound 5a, 5-Chloro-N-(2-methyl-3-oxo-1-thia-4-azaspiro[4.4]nonan-4-yl)-3-phenyl-1H-indole-2-carboxamide] | no antiviral activity | –
CC1SC2(CCCCC2)N(NC(=O)c2[nH]c3ccc(Cl)cc3c2-c2ccccc2)C1=O (stereo not drawn) [Compound 5b, 5-Chloro-N-(2-methyl-3-oxo-1-thia-4-azaspiro[4.5]decan-4-yl)-3-phenyl-1H-indole-2-carboxamide] | – | moderately active; also recorded: inhibitory effect
CC1CCC2(CC1)SC(C)C(=O)N2NC(=O)c1[nH]c2ccc(Cl)cc2c1-c1ccccc1 (stereo not drawn) [Compound 5d, 5-Chloro-N-(2,8-dimethyl-3-oxo-1-thia-4-azaspiro[4.5]decan-4-yl)-3-phenyl-1H-indole-2-carboxamide] | – | moderately active; also recorded: inhibitory effect
